Test results reported in patent publication US20080076824A1, “Compounds That Inhibit Replication Of Human Immunodeficiency Virus” (priority 2004, published 2008).
Where two headings read alike, the source gives them in different places. Residues, ends and D or L forms follow the SMILES beside them.

Key:
Coxsackie virus B4 = assay: Antiviral activity in Vero cell cultures, Coxsackie virus B4; format: cell-based; conditions: reduces virus-induced cytopathogenicity by 50%, read-out: Minimum inhibitory concentration Coxsackie virus B4
Protocol: The cytotoxicity and antiviral activity of various concentrations of G-NH2 and GPG-NH2 were evaluated in cell cultures that were infected with various types of viruses. Conventional host cell culture, viral infection, and infectivity analysis for each different type of cell and virus were followed. Compounds that were known to inhibit replication of the particular types of viruses analyzed were used as controls.

[1] = test system: Herpes simplex virus-1 (KOS); conditions: read-out: Minimum inhibitory concentration Herpes simplex virus-1 (KOS); HEL; reduces virus-induced cytopathogenicity by 50%
[2] = test system: Herpes simplex virus-2 (G); conditions: read-out: Minimum inhibitory concentration Herpes simplex virus-2 (G); HEL; reduces virus-induced cytopathogenicity by 50%
Vaccinia virus = conditions: read-out: Minimum inhibitory concentration Vaccinia virus; HEL; reduces virus-induced cytopathogenicity by 50%
[3] = test system: Vesicular stomatitis virus; conditions: read-out: Minimum inhibitory concentration Vesicular stomatitis virus; HEL; reduces virus-induced cytopathogenicity by 50%
[4] = test system: Herpes simplex virus-1 TK^− KOS ACV^r; conditions: read-out: Minimum inhibitory concentration Herpes simplex virus-1 TK^− KOS ACV^r; HEL; reduces virus-induced cytopathogenicity by 50%
[5] = test system: Vesicular stomatitis virus; conditions: read-out: Minimum inhibitory concentration Vesicular stomatitis virus; HeLa; reduces virus-induced cytopathogenicity by 50%
[6] = test system: Respiratory syncytial virus; conditions: read-out: Minimum inhibitory concentration Respiratory syncytial virus; HeLa; reduces virus-induced cytopathogenicity by 50%
Reovirus-1 = conditions: read-out: Minimum inhibitory concentration Reovirus-1; Vero; reduces virus-induced cytopathogenicity by 50%
Punta Toro virus = conditions: read-out: Minimum inhibitory concentration Punta Toro virus; Vero; reduces virus-induced cytopathogenicity by 50%
HIV-1 = conditions: for anti-HIV activity in the presence of IlePyr: 200 and 500 μM IlePyr, in words
[7] = Conversion of radiolabeled G-NH2 to modified G-NH2 by human sera; format: in vitro ADME; conditions: 10% human serum in PBS, 37° C., 24 hours, each of 10 samples
Protocol: Several lots of human sera and fetal bovine sera were analyzed for their ability to convert G-NH2 to modified G-NH2. Radiolabeled cation exchange HPLC purified G-NH2 (see EXAMPLE 3) was incubated with the various sera at a 10% final concentration in PBS at 37° C. for 15 minutes and 1, 6, 24, or 72 hours. Subsequently, the amount of radiolabeled modified G-NH2 was evaluated using the cation exchange HPLC approach described above.

[8] = read-out: 50% effective concentration, HIV replication in CEM cell cultures
[9] = read-out: EC50 (CEM) HIV-1 (IIIB), Table 19
[10] = read-out: EC50 HIV-1 IIIB, CEM cell cultures, syncytia formation, Table 1

SMILES: NCC(=O)N1CCC[C@H]1C(=O)NCC(N)=O [GPG-NH2, glycylprolylglycinamide] (H-Gly-Pro-Gly-NH2)
- EC50 (Coxsackie virus B4): > 400 µM
- EC50 (HIV-1 (IIIB); [8]): ~30 µM
- EC50 (HIV-1 (IIIB); [9]): 30 µM
- EC50 (HIV-1 (IIIB); [10]): 35 ± 8.7 µM
- EC50 [1]: > 400 µM
- EC50 [2]: > 400 µM
- EC50 (Vaccinia virus): > 400 µM
- EC50 [3]: > 400 µM
- EC50 [4]: > 400 µM
- EC50 [5]: > 400 µM
- EC50 [6]: > 400 µM
- EC50 (Reovirus-1): > 400 µM
- EC50 (Punta Toro virus): > 400 µM
- anti-HIV activity in the presence of IlePyr (HIV-1): markedly lost its inhibitory activity

SMILES: NCC(N)=O [G-NH2, glycinamide]
- EC50 (Coxsackie virus B4): > 2000 µM
- conversion of G-NH2 to modified G-NH2 [7]: less than 10%
- ability to inhibit the replication of HIV (HIV-1 (IIIB); G-NH2 in medium with heat inactivated serum (10% fetal bovine serum, 95° C., 30 minutes)): lost its ability to inhibit the replication of HIV
- inhibition of replication of HIV (HIV-1 (IIIB); boiled fetal bovine serum or human serum samples, results the experiments will show): does not
- EC50 (HIV-1 (IIIB); [8]): ~30 µM
- EC50 (HIV-1 (IIIB); [9]): 25 ± 7.1 µM
- EC50 (HIV-1 (IIIB); read-out: EC50 (CEM) HIV-1(IIIB), Table 20): 25 ± 7.1 µM
- EC50 (HIV-1 (IIIB); [10]): 32 ± 7.6 µM
- EC50 (HIV-1 (IIIB); read-out: EC50 against HIV-1(IIIB), CEM cell cultures, Table 2): ~21.3 µM
- EC50 (HIV-1 (IIIB); read-out: EC50 against HIV-1(IIIB), CEM cell cultures, Table 2, listed as Glycinamide): 21.3 ± 16.3 µM
- EC50 [1]: > 2000 µM
- EC50 [2]: > 2000 µM
- EC50 (Vaccinia virus): > 2000 µM
- EC50 [3]: > 2000 µM
- EC50 [4]: > 2000 µM
- EC50 [5]: > 2000 µM
- EC50 [6]: > 2000 µM
- EC50 (Reovirus-1): > 2000 µM
- EC50 (Punta Toro virus): > 2000 µM
- anti-HIV activity in the presence of IlePyr (HIV-1): fully preserved its anti-HIV activity
- EC50 (HIV-1; CEM cell cultures, presence of 200 and 500 μM of IlePyr): 35 to 43 µM
